Measurements reported in US20150079000A1, “Labelled Quinoxaline Derivatives as Multimodal Radiopharmaceuticals and Their Precursors” (INSTITUT NATIONAL DE LA SANTET DE LA RECHERCHE MEDICALE, priority 2012, published 2015).

Assay: Metabolism of compound [125I](1)
Type: in vivo, mice
Protocol: 24 primary melanoma bearing mice were intravenously injected with 2.2 MBq of [^1251](1) and sacrificed 1 h, 3 h, 6 h, 24 h, 72 h and 10 days after tracer injection. To determine the metabolic stability of [^1251](1), blood, tumour, eyes, liver, kidney and urine samples were collected at each time point […]. Faeces were collected between 0-24 h and 24-48 h. Blood was immediately diluted in 5 mL of methanol/NH4OH 99.8:0.2 and centrifuged for 5 min at 3,000 rpm. Tumour, eyes, liver, kidneys and faeces were suspended in 5 mL of methanol/NH4OH 99.8:0.2, homogenized using GentleMACS™ dissociator (Miltenyi Biotec, Bergisch Gladbach, Germany) and centrifuged for 5 min at 3,000 rpm (repeated 2 times). Urines were analysed without any treatment. The extraction efficiency was determined by measuring the radioactivity of supernatants and precipitates. Supernatants were passed through a 0.22 μm Millipore filter and then concentrated to a volume between 200 and 500 μL before injection (duplicate) onto the analytical HPLC(C18 column; solvent A: H2O (0.2% NH4OH); solvent B: MeOH (0.2% NH4OH); Gradient elution: 0-5 min: 90 to 70% of A (Q=0.5 mL·min^−1); 5-30 min: 70 to 20% of A (Q=0.9 mL·min^−1); 30-32 min: 10% of A (Q=0.9 mL·min^−1)).

[1] = Feces, (grid: 3 h; faeces collected 24-48 h)
[2] = Feces, first value column (grid: 1 h; faeces collected 0-24 h)
[3] = Urine, 1 h after [125I](1) injection
[4] = Urine, 3 h after [125I](1) injection
[5] = Urine, 6 h after [125I](1) injection
[6] = Urine, 24 h after [125I](1) injection
[7] = Urine, 72 h after [125I](1) injection
[8] = Blood, 1 h after [125I](1) injection
[9] = Blood, 3 h after [125I](1) injection
[10] = Blood, 6 h after [125I](1) injection
[11] = Kidney, 1 h after [125I](1) injection
[12] = Kidney, 3 h after [125I](1) injection
[13] = Kidney, 6 h after [125I](1) injection
[14] = Liver, 1 h after [125I](1) injection
[15] = Liver, 3 h after [125I](1) injection
[16] = Liver, 6 h after [125I](1) injection
[17] = Liver, 24 h after [125I](1) injection

| Compound | % of radioactivity [1] | % of radioactivity [2] | % of radioactivity [3] | % of radioactivity [4] | % of radioactivity [5] | % of radioactivity [6] | % of radioactivity [7] | % of radioactivity [8] | % of radioactivity [9] | % of radioactivity [10] | % of radioactivity [11] | % of radioactivity [12] | % of radioactivity [13] | % of radioactivity [14] | % of radioactivity [15] | % of radioactivity [16] | % of radioactivity [17] | further results |
| --- | --- | --- | --- | --- | --- | --- | --- | --- | --- | --- | --- | --- | --- | --- | --- | --- | --- | --- |
| O=C(O)CNC(=O)c1cnc2cc([125I])ccc2n1 [Acid [^125I]II] | 3.5 ± 0.7% | 3.0 ± 0.0% | 30.3 ± 2.4% | 24.0 ± 0.0% | 21.0 ± 0.0% | 6.5 ± 0.7% | 0.0 ± 0.0% | – | – | – | – | – | – | – | – | – | – | – |
| O=C(O)c1cnc2cc([125I])ccc2n1 [Acid [^125I]I] | 8.0 ± 1.4% | 7.5 ± 0.7% | 17.2 ± 3.1% | 20.0 ± 1.4% | 16.0 ± 1.4% | 3.5 ± 0.7% | 0.0 ± 0.0% | 21.5 ± 2.1% | 11.5 ± 0.7% | 11.0 ± 0.0% | 29.0 ± 1.4% | 34.2 ± 0.7% | 43.0 ± 1.4% | – | – | – | – | – |
| CCNCCNC(=O)c1cnc2cc([125I])ccc2n1 [Amine [^125I]II] | 2.5 ± 0.7% | 6.5 ± 0.7% | – | – | – | – | – | – | – | – | – | – | – | – | – | – | – | – |
| NCCNC(=O)c1cnc2cc([125I])ccc2n1 [Amine [^125I]I] | 14.0 ± 0.0% | 16.0 ± 0.0% | 6.6 ± 0.6% | 13.0 ± 1.4% | 3.5 ± 4.9% | 0.0 ± 0.0% | 0.0 ± 0.0% | – | – | – | 18.5 ± 0.7% | 11.7 ± 0.7% | 0.0 ± 0.0% | 26.0 ± 0.0% | 45.5 ± 2.1% | 55.0 ± 2.8% | 70.5 ± 0.7% | – |
| [125IH] [[^125I]I^−] | 27.0 ± 1.4% | 8.0 ± 0.0% | 25.7 ± 3.2% | 30.5 ± 0.7% | 51.0 ± 4.2% | 85.0 ± 1.4% | 99.0 ± 0.0% | 76.5 ± 0.7% | 88.5 ± 0.7% | 85.5 ± 4.9% | 20.5 ± 0.7% | 37.2 ± 2.2% | 57.0 ± 1.4% | 20.0 ± 1.4% | 21.5 ± 4.9% | 29.5 ± 0.7% | 29.5 ± 0.7% | % of radioactivity (Eyes, 1 h after [125I](1) injection): 9.5 ± 0.7%; % of radioactivity (Eyes, 3 h after [125I](1) injection): 5.5 ± 2.1%; % of radioactivity (Eyes, 6 h after [125I](1) injection): 4.0 ± 5.7%; % of radioactivity (Eyes, 24 h after [125I](1) injection): 0.0 ± 0.0%; % of radioactivity (Eyes, 72 h after [125I](1) injection): 0.0 ± 0.0%; % of radioactivity (Eyes, 10 d after [125I](1) injection): 0.0 ± 0.0%; % of radioactivity (Tumour, 1 h after [125I](1) injection): 13.0 ± 1.4%; % of radioactivity (Tumour, 3 h after [125I](1) injection): 6.5 ± 0.7%; % of radioactivity (Tumour, 6 h after [125I](1) injection): 9.0 ± 0.0%; % of radioactivity (Tumour, 24 h after [125I](1) injection): 0.0 ± 0.0%; % of radioactivity (Tumour, 72 h after [125I](1) injection): 0.0 ± 0.0%; % of radioactivity (Tumour, 10 d after [125I](1) injection): 0.0 ± 0.0% |
